Source: patent EP0855387A1, “2-ACYLAMINOBENZAMIDE DERIVATIVES AND PREVENTIVE AND REMEDY FOR DISEASES CAUSED BY THE SUPERMULTIPLICATION OF VASCULAR INTIMAL CELLS” (KISSEI PHARMACEUTICAL CO., LTD., priority 1995, dated 1997)
pIC50: −log10 of the molar value. Where two headings read alike, the source gives them in different places.

How the values were obtained:
[1] = tested on: Spontaneous hypertensive rat-derived vascular smooth muscle cells (VSMCs) in thoracic aorta; experiment: Inhibition test on vascular smooth muscle cells proliferation (3H-thymidine incorporation); type: cell-based; details: Rattus norvegicus, VSMC
Procedure: Thus, the compounds of the present invention have a very potent inhibitory effect on vascular smooth muscle cells proliferation.
Spontaneous hypertensive rat-derived vascular smooth muscle cells (VSMCs) in thoracic aorta were isolated by explant technique. The VSMCs were placed into 96 wells at 5000 cells/well and incubated in DMEM containing 10 % fetal calf serum at 37 °C in 95 % air and 5 % carbon dioxide for 3 days. After the incubation, the medium was replaced with DMEM containing each compound and ^3H-thymidine, and then the VSMCs were incubated. 24 hours later, the incorporation of ^3H-thymidine into DNA was determined and the radioactivity was defined as proliferation inhibitory activity of VSMCs. The activity of each compound was shown as a concentration which reduced the radioactivity of non-treated group by 50 % (IC50).

[2] = tested on: thrombosis-induced neointimal hyperplasia in mouse femoral artery; experiment: Inhibition test on neointimal hyperplasia (thrombosis-induced model); type: in vivo; details: oral, once a day for 3 weeks; dose reducing the neointimal area of the non-treated group by 50 %
Procedure: The effect of compounds in vivo was evaluated by using a model of thrombosis-induced neointimal hyperplasia in mouse femoral artery. Each compound was suspended in 0.5 % carboxymethylcellulose sodium solution and administered orally to mice once a day for 3 weeks. After final administration, the femoral artery was fixed and removed. Cross sections of vessels were made consecutively and the neointimal area induced and formed by thrombosis was measured. Inhibitory activity on neointimal hyperplasia of each compound was shown as a dose which reduced the area of the non-treated group by 50 % (ID50).

Acute toxicity test = type: in vivo; details: single oral administration, dose of 2000mg/kg; for death (dead mice): 2000 mg/kg
Procedure: The compounds represented by the general formula (I) of the present invention have an LD50 value extremely preferable to that of Tranilast and therefore are very safer compounds.
Male ICR nice were fasted for 4 hours. 2-(3,4-Dimethoxycinnamoylamino)benzamide was suspended in 0.5 % carboxymethylcellulose sodium and administered orally at doses of 300, 1000 and 2000mg/kg, respectively. Dead mice and abnormal behavior were not observed even in the group administered at a dose of 2000mg/kg.

[3] = tested on: restenosis after PTCA surgery; details: patients after PTCA surgery; incidence without the drug about 30-40%; cited from earlier work
[4] = 3H-thymidine incorporation into DNA, 24 hours incubation with compound, read-out: Concentration of 50% inhibitory activity (IC50)

| SMILES | pIC50 [1, 4] | Dose of 50% inhibitory activity (ID50) [2] [mg/kg] | other results |
| --- | --- | --- | --- |
| COc1ccc(/C=C/C(=O)Nc2ccccc2C(N)=O)cc1OC [Compound 4, (E)-2-(3,4-Dimethoxycinnamoylamino)benzamide] | 4.57 | 1 | abnormal behavior (Acute toxicity test; mice): not observed; death (dead mice) (Acute toxicity test; listed as 2-(3,4-Dimethoxycinnamoylamino)benzamide): not observed; death (dead mice) (Acute toxicity test; listed as 2-(3,4-dimethoxycinnamoylamino)benzamide): no death was observed |
| CCOc1ccc(/C=C/C(=O)Nc2ccccc2C(N)=O)cc1OC [Compound 17, (E)-2-(4-Ethoxy-3-methoxycinnamoylamino)benzamide] | 5.30 | 1 |  |
| COc1ccc(C=CC(=O)Nc2ccccc2C(=O)O)cc1OC [Tranilast, 2-(3,4-dimethoxycinnamoylamino)benzoic acid, reference compound] |  | 100 | pIC50 ([1]; in vitro, read-out: concentration exhibiting a 50% inhibitory activity on vascular smooth muscle cells proliferation): 3.64; restenosis observed when administering after PTCA surgery [3]: 10-15% |
| COc1cc(OC)c(/C=C/C(=O)Nc2ccccc2C(N)=O)c(OC)c1 [Compound 37, (E)-2-(2,4,6-Trimethoxycinnamoylamino)benzamide] | 4.00 |  |  |
| COc1ccc(OC)c(/C=C/C(=O)Nc2ccccc2C(N)=O)c1 [Compound 13, (E)-2-(2,5-Dimethoxycinnamoylamino)benzamide] | 5.52 |  |  |
| COc1ccc(/C=C/C(=O)Nc2ccccc2C(=O)NCC2CCCCC2)cc1OC [Compound 59, (E)-N-Cyclohexylmethyl-2-(3,4-dimethoxycinnamoylamino)benzamide] | 5.40 |  |  |
| COc1ccc(/C=C/C(=O)Nc2ccccc2C(=O)NCCO)cc1OC [Compound 46, (E)-2-(3,4-Dimethoxycinnamoylamino)-N-(2-hydroxyethyl)benzamide] | 4.24 |  |  |
